The values that follow come from ChEMBL document CHEMBL4842329 (Eur J Med Chem, 2021).

T1 sequence (P31645 whole entry): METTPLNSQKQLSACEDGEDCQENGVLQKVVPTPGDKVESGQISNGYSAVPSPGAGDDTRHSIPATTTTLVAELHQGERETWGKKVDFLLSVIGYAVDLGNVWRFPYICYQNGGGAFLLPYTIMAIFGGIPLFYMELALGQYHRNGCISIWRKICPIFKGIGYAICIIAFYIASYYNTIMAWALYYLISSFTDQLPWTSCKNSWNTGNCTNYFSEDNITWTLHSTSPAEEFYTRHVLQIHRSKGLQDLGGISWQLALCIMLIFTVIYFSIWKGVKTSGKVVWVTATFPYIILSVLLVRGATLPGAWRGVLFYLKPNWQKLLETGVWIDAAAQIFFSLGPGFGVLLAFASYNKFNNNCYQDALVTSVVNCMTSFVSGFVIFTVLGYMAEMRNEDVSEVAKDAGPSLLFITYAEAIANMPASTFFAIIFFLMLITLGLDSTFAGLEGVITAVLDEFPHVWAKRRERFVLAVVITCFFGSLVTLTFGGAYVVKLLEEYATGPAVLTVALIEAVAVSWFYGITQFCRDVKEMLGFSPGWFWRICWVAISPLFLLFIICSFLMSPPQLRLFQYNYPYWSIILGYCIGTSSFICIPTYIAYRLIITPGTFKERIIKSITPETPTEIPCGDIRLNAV

The first assay concerns the target T1, Sodium-dependent serotonin transporter (Homo sapiens, UniProt P31645).
Assay: not given
Format: cell-based, COS7.
As a reminder, the IC50 is the concentration that inhibits the measured activity by half. `COC(=O)C1CCC2CC(O)C1N2c1ccc(Cl)c(Cl)c1` (stereo not given) came in with an IC50 of 5650 nM. This lies in the single-digit micromolar range.
Still for that read-out and setting: next, `COC(=O)C1CCC2CC(O)C1N2c1ccccc1` (stereo not given): 15 nM.

The target in the next assay is T1, Sodium-dependent serotonin transporter.
Assay: not given
The source holds these as a separate data set.
Usually Ki stands for a measure of affinity in units of concentration, obtained from inhibition or displacement. Low readings indicate a stronger hold on the target, high ones a looser hold on the target. In turn, `Brc1ccc([C@@H]2CCNC[C@H]2COc2ccc3c(c2)OCO3)cc1` displayed a Ki of 1.07 nM.

The target is the same in a further assay. As to the kind of experiment: biochemical. Format: cell-based, HEK293.
As to `COCCCC/C(=N\OCCN)c1ccc(I)cc1`, affinity was put at a Ki of 15 nM.
On the same count and under the same terms, as for `COCCCC/C(=N\OCCN)c1ccc(Cl)c(Cl)c1`, the figure is 9 nM; as for `COCCCC/C(=N\OCCN)c1ccc(Br)cc1F`, 137 nM.
On the same count and under the same terms, as for `CNCCC(Oc1ccc(I)cc1)c1ccccc1` (stereo not given), the figure is 14 nM; as for `COCCCC/C(=N\OCCN)c1ccc(F)cc1`, 1620 nM.
For `COCCCC/C(=N\OCCN)c1ccc(Cl)c(F)c1`, the Ki came out at 62 nM. This Ki lies about 26-fold lower than the previous one.
With `CNCCC(Oc1ccc(Br)cc1F)c1ccccc1` (stereo not given), the inhibition constant Ki is 41 nM.
On the same count and under the same terms, next, `CNCCC(Oc1ccc(Cl)cc1)c1ccccc1` (stereo not given): 55 nM; `CNCCC(Oc1ccc(F)cc1)c1ccccc1` (stereo not given): 543 nM.
Compound `CNCCC(Oc1ccc(Br)cc1)c1ccccc1` (stereo not given) showed an inhibitory constant (Ki) of 24 nM.
`COCCCC/C(=N\OCCN)c1ccc(Br)c(F)c1` came in with a Ki of 21 nM.
Turning to `COCCCC/C(=N\OCCN)c1ccc(Cl)cc1`, the Ki came out at 61 nM.
Still for that read-out and setting: as for `CNCCC(Oc1ccc(I)cc1F)c1ccccc1` (stereo not given), the figure is 23 nM; as for `COCCCC/C(=N\OCCN)c1ccc(Br)cc1`, 23 nM.
On the same count and under the same terms, as for `CNCCC(Oc1cccc(F)c1)c1ccccc1` (stereo not given), the figure is 349 nM; as for `CNCCC(Oc1ccc(Cl)c(Cl)c1)c1ccccc1` (stereo not given), 5 nM.
Same read-out and setting: as for `COCCCC/C(=N\OCCN)c1ccc(Cl)cc1F`, the figure is 202 nM; as for `CNCCC(Oc1ccccc1)c1ccccc1` (stereo not given), 1460 nM; as for `CNCCC(Oc1ccc(Br)c(F)c1)c1ccccc1` (stereo not given), 19 nM.
Regarding `CNCCC(Oc1ccc(Cl)c(F)c1)c1ccccc1` (stereo not given), affinity was put at a Ki of 31 nM.
In turn, `CNCCC(Oc1ccc(Cl)cc1F)c1ccccc1` (stereo not given) yielded a Ki of 52 nM.
The same measure, in the same setting: as for `CNCCC(Oc1cccc(Cl)c1)c1ccccc1` (stereo not given), the figure is 66 nM.
